Assay results as given in patent US10286034B2, “Uses of bremelanotide in therapy for female sexual dysfunction” (Palatin Technologies, Inc., priority 2012, dated 2019).

Tests used:
[1] = test system: women diagnosed with sexual arousal disorder; conditions: single intranasal dose of 20 mg, cited from earlier work
[2] = Example 1: plasma pharmacokinetics after in-clinic subcutaneous dose; format: in vivo, human
Experimental: Ambulatory blood pressure monitoring was conducted following both placebo and randomized treatment group in-clinic administrations. Three periods of ambulatory blood pressure monitoring were included, the first period was from before to 24 hours after a single, in-clinic dose of placebo (to establish a baseline); the second and third periods occurred from before to 24 hours after each of 2 single, in-clinic doses of double-blind treatment, administered within 14 days of each other. Blood samples for pharmacokinetic analysis were collected before and at 0.5, 1.0, and 2.0 hours after each in-clinic bremelanotide single-dose treatment (double-blind only), to permit analysis of concentration-response relationships.
Mean pharmacokinetic parameters were determined by bremelanotide dose and visit, including Cmax determinations (the highest ng/mL concentration at either 0.5 or 1 hour post administration) and AUC determinations at two hours and, for a subset of subjects in each group, at four hours.
The Cmax for the mean curve was calculated by averaging the concentrations at each time point (0.5, 1, 2 and 4 hours), and this is shown in FIG. 3.

[3] = test system: healthy adult female subjects; assay: Phase 1 single dose escalation, subcutaneous; vaginal photoplethysmography with visual sexual stimulation; format: in vivo, human
Experimental: In a double-blind, placebo-controlled, single dose, dose escalation Phase 1 study to determine the maximum tolerated dose in healthy adult female subjects, doses of from 0.3 to 5.0 mg (0.3, 1.0, 3.0 and 5.0 mg) of bremelanotide were administered by subcutaneous injection. However, this study specifically excluded women with a diagnosis of FSD, and thus could not determine an effective dose for treatment of FSD. The study did employ a measure of pharmacodynamic effect, defined as an increase of sexual arousal response in the presence of visual sexual stimulation as measured by vaginal blood flow with vaginal photoplethysmography (using a Geer gauge device), which measures vaginal pulse amplitude.

[4] = Intranasal 10 mg Phase 2 studies in women with FSAD: plasma concentration 30 minutes post dose; format: in vivo, human; conditions: 10 mg intranasal
Experimental: In the bremelanotide premenopausal arm, 42.5% of the subjects were discontinued due to hypertension, nausea, vomiting or myalgia. Subjects received a 10 mg intranasal dose of bremelanotide, with premenopausal subjects determined to have a mean plasma concentration of 88.5±51.9 ng/mL and a % CV of 58.6, and postmenopausal subjects determined to have a mean plasma concentration of 93.2±68.5 ng/mL and a % CV of 73.5. The minimum and maximum plasma concentration levels for all women at thirty minutes post dose range from 0.0 ng/mL to 207.0 ng/mL.
In the intranasal study, premenopausal women self-administered a 10 mg intranasal dose.

[5] = Pharmacokinetics of subcutaneous administration in healthy adult males; format: in vivo, human; conditions: after subcutaneous administration
Source text: Results of Tmax values were compared between subcutaneous administration (SC) and intranasal (IN) administration of various doses of bremelanotide, as shown in FIG. 1.

[6] = test system: men diagnosed with erectile dysfunction; conditions: subcutaneous injection of 4 or 6 mg; cited from earlier work
[7] = test system: female rats; conditions: cited from earlier work
[8] = all women, thirty minutes post dose

CCCC[C@H](NC(C)=O)C(=O)N[C@H]1CC(=O)NCCCC[C@@H](C(=O)O)NC(=O)[C@H](Cc2c[nH]c3ccccc23)NC(=O)[C@H](CCCNC(=N)N)NC(=O)[C@@H](Cc2ccccc2)NC(=O)[C@H](Cc2c[nH]cn2)NC1=O [bremelanotide, Ac-Nle-cyclo(-Asp-His-D-Phe-Arg-Trp-Lys)-OH]
vaginal pulse amplitude measures ([1]; compared to placebo): without statistically relevant differences, compared to placebo | reported feelings of sexual arousal [1]: statistically relevant reported feelings of sexual arousal | AUC(0-2 h) % CV ([2]; 0.75 mg SC, Visit 5): 24% | AUC(0-2 h) Max ([2]; 0.75 mg SC, Visit 5): 85 ng·h/mL | AUC(0-2 h) Mean ([2]; 0.75 mg SC, Visit 5): 53 ng·h/mL | AUC(0-2 h) Median ([2]; 0.75 mg SC, Visit 5): 52 ng·h/mL | AUC(0-2 h) Min ([2]; 0.75 mg SC, Visit 5): 25 ng·h/mL | AUC(0-4 h) % CV ([2]; 0.75 mg SC, Visit 5): 23% | AUC(0-4 h) Max ([2]; 0.75 mg SC, Visit 5): 126 ng·h/mL | AUC(0-4 h) Mean ([2]; 0.75 mg SC, Visit 5): 84 ng·h/mL | AUC(0-4 h) Median ([2]; 0.75 mg SC, Visit 5): 80 ng·h/mL | AUC(0-4 h) Min ([2]; 0.75 mg SC, Visit 5): 50 ng·h/mL | Cmax % CV ([2]; 0.75 mg SC, Visit 5): 27% | Cmax Max ([2]; 0.75 mg SC, Visit 5): 60 ng/mL | Cmax Median ([2]; 0.75 mg SC, Visit 5): 36 ng/mL | Cmax Min ([2]; 0.75 mg SC, Visit 5): 17 ng/mL | AUC(0-2 h) % CV ([2]; 0.75 mg SC, Visit 7): 24% | AUC(0-2 h) Max ([2]; 0.75 mg SC, Visit 7): 92 ng·h/mL | AUC(0-2 h) Mean ([2]; 0.75 mg SC, Visit 7): 53 ng·h/mL | AUC(0-2 h) Median ([2]; 0.75 mg SC, Visit 7): 52 ng·h/mL | AUC(0-2 h) Min ([2]; 0.75 mg SC, Visit 7): 26 ng·h/mL | AUC(0-4 h) % CV ([2]; 0.75 mg SC, Visit 7): 20% | AUC(0-4 h) Max ([2]; 0.75 mg SC, Visit 7): 120 ng·h/mL | AUC(0-4 h) Mean ([2]; 0.75 mg SC, Visit 7): 80 ng·h/mL | AUC(0-4 h) Median ([2]; 0.75 mg SC, Visit 7): 79 ng·h/mL | AUC(0-4 h) Min ([2]; 0.75 mg SC, Visit 7): 51 ng·h/mL | Cmax % CV ([2]; 0.75 mg SC, Visit 7): 27% | Cmax Max ([2]; 0.75 mg SC, Visit 7): 78 ng/mL | Cmax Mean ([2]; 0.75 mg SC, Visit 7): 38 ng/mL | Cmax Min ([2]; 0.75 mg SC, Visit 7): 20 ng/mL | AUC(0-2 h) % CV ([2]; 1.25 mg SC, Visit 5): 25% | AUC(0-2 h) Max ([2]; 1.25 mg SC, Visit 5): 148 ng·h/mL | AUC(0-2 h) Mean ([2]; 1.25 mg SC, Visit 5): 86 ng·h/mL | AUC(0-2 h) Median ([2]; 1.25 mg SC, Visit 5): 81 ng·h/mL | AUC(0-2 h) Min ([2]; 1.25 mg SC, Visit 5): 42 ng·h/mL | AUC(0-4 h) % CV ([2]; 1.25 mg SC, Visit 5): 20% | AUC(0-4 h) Max ([2]; 1.25 mg SC, Visit 5): 187 ng·h/mL | AUC(0-4 h) Median ([2]; 1.25 mg SC, Visit 5): 136 ng·h/mL | AUC(0-4 h) Min ([2]; 1.25 mg SC, Visit 5): 86 ng·h/mL | Cmax % CV ([2]; 1.25 mg SC, Visit 5): 31% | Cmax Max ([2]; 1.25 mg SC, Visit 5): 126 ng/mL | Cmax Mean ([2]; 1.25 mg SC, Visit 5): 60 ng/mL | Cmax Min ([2]; 1.25 mg SC, Visit 5): 29 ng/mL | AUC(0-2 h) % CV ([2]; 1.25 mg SC, Visit 7): 25% | AUC(0-2 h) Max ([2]; 1.25 mg SC, Visit 7): 144 ng·h/mL | AUC(0-2 h) Mean ([2]; 1.25 mg SC, Visit 7): 84 ng·h/mL | AUC(0-2 h) Median ([2]; 1.25 mg SC, Visit 7): 84 ng·h/mL | AUC(0-2 h) Min ([2]; 1.25 mg SC, Visit 7): 24 ng·h/mL | AUC(0-4 h) % CV ([2]; 1.25 mg SC, Visit 7): 25% | AUC(0-4 h) Max ([2]; 1.25 mg SC, Visit 7): 199 ng·h/mL | AUC(0-4 h) Mean ([2]; 1.25 mg SC, Visit 7): 142 ng·h/mL | AUC(0-4 h) Median ([2]; 1.25 mg SC, Visit 7): 144 ng·h/mL | AUC(0-4 h) Min ([2]; 1.25 mg SC, Visit 7): 39 ng·h/mL | Cmax % CV ([2]; 1.25 mg SC, Visit 7): 33% | Cmax Max ([2]; 1.25 mg SC, Visit 7): 150 ng/mL | Cmax Mean ([2]; 1.25 mg SC, Visit 7): 60 ng/mL | Cmax Median ([2]; 1.25 mg SC, Visit 7): 60 ng/mL | Cmax Min ([2]; 1.25 mg SC, Visit 7): 18 ng/mL | AUC(0-2 h) % CV ([2]; 1.75 mg SC, Visit 5): 23% | AUC(0-2 h) Max ([2]; 1.75 mg SC, Visit 5): 171 ng·h/mL | AUC(0-2 h) Min ([2]; 1.75 mg SC, Visit 5): 17 ng·h/mL | AUC(0-4 h) % CV ([2]; 1.75 mg SC, Visit 5): 29% | AUC(0-4 h) Max ([2]; 1.75 mg SC, Visit 5): 289 ng·h/mL | AUC(0-4 h) Median ([2]; 1.75 mg SC, Visit 5): 179 ng·h/mL | AUC(0-4 h) Min ([2]; 1.75 mg SC, Visit 5): 25 ng·h/mL | Cmax % CV ([2]; 1.75 mg SC, Visit 5): 25% | Cmax Mean ([2]; 1.75 mg SC, Visit 5): 77 ng/mL | Cmax Median ([2]; 1.75 mg SC, Visit 5): 78 ng/mL | AUC(0-2 h) % CV ([2]; 1.75 mg SC, Visit 7): 25% | AUC(0-2 h) Max ([2]; 1.75 mg SC, Visit 7): 176 ng·h/mL | AUC(0-2 h) Median ([2]; 1.75 mg SC, Visit 7): 111 ng·h/mL | AUC(0-2 h) Min ([2]; 1.75 mg SC, Visit 7): 28 ng·h/mL | AUC(0-4 h) % CV ([2]; 1.75 mg SC, Visit 7): 25% | AUC(0-4 h) Max ([2]; 1.75 mg SC, Visit 7): 276 ng·h/mL | AUC(0-4 h) Mean ([2]; 1.75 mg SC, Visit 7): 184 ng·h/mL | AUC(0-4 h) Median ([2]; 1.75 mg SC, Visit 7): 180 ng·h/mL | AUC(0-4 h) Min ([2]; 1.75 mg SC, Visit 7): 72 ng·h/mL | Cmax % CV ([2]; 1.75 mg SC, Visit 7): 25% | Cmax Max ([2]; 1.75 mg SC, Visit 7): 127 ng/mL | Cmax Mean ([2]; 1.75 mg SC, Visit 7): 78 ng/mL | Cmax Median ([2]; 1.75 mg SC, Visit 7): 77 ng/mL | Cmax Min ([2]; 1.75 mg SC, Visit 7): 27 ng/mL | Cmax % CV ([2]; 1.75 mg subcutaneous dose): 25% | median Cmax ([2]; 1.75 mg subcutaneous dose): 78 ng/mL | pharmacodynamic effect (vaginal pulse amplitude) ([3]; 0.3 or 1.0 mg subcutaneous, compared to placebo or baseline): no apparent pharmacodynamic effect | pharmacodynamic effect (vaginal pulse amplitude) ([3]; 3 and 5 mg subcutaneous): statistically significant pharmacodynamic effect | subcutaneous doses at which a pharmacodynamics effect was seen ([3]; normal female volunteers): ≥ 3 mg | maximum plasma concentration level [4, 8]: 207.0 ng/mL | minimum plasma concentration level [4, 8]: 0.0 ng/mL | % CV of plasma concentration ([4]; postmenopausal subjects): 73.5% | % CV of Cmax (plasma concentration) ([4]; premenopausal women, 30 minutes post dosing): 58.6% | level at 0.5 h ([4]; female, human, plasma, inhaled or intranasal, postmenopausal subjects): 93.2 ± 68.5 ng/mL | time to quantifiable concentrations in plasma [5]: ≤ 15 min | erectile response [6]: statistically significant erectile response compared to placebo | effect on sexual behavior [7]: selective pharmacological effect on appetitive sexual behavior | Fos induction ([7]; subcutaneous injections): inducing the immediate-early gene product Fos in a variety of limbic and hypothalamic structures | dopamine release ([7]; subcutaneous injections): increasing dopamine release in the medial preoptic area
